Assay results from paper PMC3885398, “Evaluation of the Antitumor Effects of BPR1J-340, a Potent and Selective FLT3 Inhibitor, Alone or in Combination with an HDAC Inhibitor, Vorinostat, in AML Cancer” (PLoS ONE, 2014).

Tests used:
MOLM-13 tumor xenograft = tested on: MOLM-13 tumor xenograft; set-up: method as in PMID 22187040; conditions: 25 mg/kg, same MOLM-13 model; cited from earlier work
MOLM-13 cells = assay: Apoptosis assay, Annexin V-FITC/PI flow cytometry; type: cell-based, human; conditions: MOLM-13 (FLT3-ITD-expressing cells), 300 nM, 48 hours
Method: (§1) The number of apoptotic cells was determined by fluorescence-activated cell sorting (FACS) analyses using Annexin V-FITC staining. In brief, cells were centrifuged after drug treatment and resuspended in 1× binding buffer containing 2.5 mM of calcium (Ca2+). Cells were incubated with Annexin V-FITC (Biolegend, San Diego, CA) and propidium iodide (PI) (Sigma–Aldrich, St. Louis, MO) in the dark at room temperature for 20 minutes. Next, samples were reconstituted with 1× binding buffer and subjected to flow cytometry FACS Calibus (BD Bioscience, Franklin Lakes, NJ) to analyze the Annexin V-positive population using CellQuest Pro (BD Bioscience) and FlowJo (Treestar, Inc., San Carlos, CA).
(§2) Some histone deacetylase inhibitors (HDACi) will enhance the cytotoxic activity of FLT3 inhibitor on FLT3-ITD^+ cell via degradation of FLT3-ITD and STAT5 [24], [26], [36], [37]. […]
(§3) Figure 4 The effect of BPR1J-340 and SAHA versus drug combination on AML FLT3-ITD+ cells. […] (A) Viable cells were counted after staining with trypan blue dye at indicated time point (B) At 48-hours after treatment, cells were stained with FITC-labeled annexin V and propidium iodide and percentages of apoptotic cells were analyzed by flow cytometry. […]

MV4;11 cells = assay: Apoptosis assay, Annexin V-FITC/PI flow cytometry; type: cell-based, human; conditions: MV4;11 (FLT3-ITD-expressing cells), 300 nM, 48 hours
Method: as §1, §2, §3

Row | SMILES | CR, animals (MOLM-13 tumor xenograft) | rate of apoptotic cells versus control (MOLM-13 cells) | rate of apoptotic cells versus control (MV4;11 cells)
1 | CN1CCN(c2ccc(C(=O)Nc3cc(-c4cccc(NS(=O)(=O)c5ccccc5)c4)n[nH]3)cc2)CC1 [BPR1J-097, N1-(3-3-[(phenylsulfonyl)amino]phenyl-1H-5-pyrazolyl)-4-(4-methylpiperazino)benzamide] | 1/8 |  | 
2 | O=C(CCCCCCC(=O)Nc1ccccc1)NO [SAHA, vorinostat] |  | did not increase | did not increase
